# Data reported in patent US20070238717A1, “Neuroprotection with Beta-Lactam Compounds” (Johns Hopkins University, priority 2003, published 2007).
# Legend:
# EAAT2 = experiment: Spinal cord organotypic culture screen for EAAT2 protein expression (slot blot); format: cell-based, rat; conditions: for EAAT2 expression: positive controls, after 3 days in culture
# Source text: Screening Assay for EAAT2 Protein overexpression. Spinal cord organotypic cultures and astroglial cultures are used to screen for drugs capable of stimulating EAAT2 synthesis and function. Organotypic cultures offer the advantage in that they maintain the normal architecture of neuron-astroglial interactions in vitro and are derived from post natal tissue; thus may better reflect astroglial responses in vivo (rather than embryonic cells). Thus a drug that acts either on an astrocyt—or induces neurons to secrete factors that alert astrocytes—better reflects the “natural” condition of delivering a drug to a whole animal.
# Organotypic Spinal Cord. Spinal cord organotypic cultures have been described by us in detail in the past. Rothstein J D et al., N. Engl. J. Med. 1992; 326:1464-1468. Briefly, 300 um sections of rat lumbar spinal cord, from postnatal day 8-10 rat pups, are placed on Millipore Millicell CM semipermeable membranes. Each well contains 5 slices (FIG. 2A). Fifty-100 cultures can be prepared weekly. Each drug (10-100 μM) was added for 3-7 days, along with cell culture medium/serum. Cultures were harvested and 5-50 μg of tissue was applied to slot blot apparatus for detection of EAAT2 by standard Western blotting/chemiluminescence methods described in the past. Kuncl R W et al., Motor neuron diseases. In: Asbury A K et al., editors. Diseases of the Nervous System. 2 ed. Philadelphia: W. B. Saunders, 1992:1179-1208; Rothstein J D et al., Neuron 1994; 13:713-725. All antipeptide antibodies were affinity purified and highly specific for transporter subtypes. By this method, increases greater than 50% of expressed protein can be detected. For each antibody slot blot, the homogenates used are expected to be within the linear range for antibody detection, based on prior standard curves.
# Screening Library-Assay Design. The library of compounds for these first studies was the NINDS Custom Collection from Microsource Discovery. The library is composed of 1040 compounds in 96 well plates, that also included positive control for transporter synthesis (dibutyryl cyclic AMP [dbcAMP], GDNF). […] The library is a unique collection of known bioactive compounds that permit the simultaneous evaluation of hundreds of marketed drugs and biochemical standards. Each compound was studied at a final concentration of 10-100 μM. All assays were performed in duplicate. Every blot included control—untreated tissue and a positive control, such as those identified above.
# Data Analysis. All blots were analyzed by laser densitometry (BioRad Image Quant) and the duplicate points were averaged. Each blot included a positive control standard (e.g. dbcAMP) and a negative control standard (e.g. serum, DMSO). Data was kept in Excel Spreadsheets, using a numerical/text coding system. All positive drugs (positive defined as at least a 50% increased in protein expression) were re-evaluated.
# [1] = intravenous, pediatric bacterial meningitis, after 3-4 hours; cited from earlier work
# [2] = intravenous, antibiotic doses, after 0.5 hours; cited from earlier work
# [3] = test system: cultures prepared from GLT-1 null mice; experiment: Chronic motor neurodegeneration model in cultures prepared from GLT-1 null mice; format: cell-based; conditions: not shown
# [4] = test system: large ventral horn motor neurons in organotypic spinal cord cultures; experiment: In vitro model of chronic motor neurodegeneration (THA) in organotypic spinal cord cultures; format: cell-based, rat; conditions: THA 100 μM, 4 weeks, drug 0 to 100 μM, FIG. 7B
# Experimental: In vitro model of chronic motor neurodegeneration (FIG. 7B). A model of chronic neurodegeneration was used, based on the blockade of glutamate transport in spinal cord organotypic cultures, with the non specific inhibitor threo-hytdroyxaspartate (THA) or TBOA. Chronic incubation of cultures with THA (or TBOA) leads to chronic increase in extra cellular glutamate and subsequent slow death of motor neurons (over 4 weeks).
# To determine if drug induced GLT1 promoter activation, and the subsequent over expression of GLT1 protein could be neuroprotective, we used the organotypic spinal cord paradigm. Organotypic spinal cord cultures were prepared from lumbar spinal cords of 8-day-old rat pups, as described previously. […] No drugs were added for the first 7 days following culture preparation. THA was then added to experimental cultures at a concentration of 100 μM, which produces death of motor neurons within 3 to 4 weeks. […] After 4 weeks, cultures were fixed, and immuostained for neurofilament (SMI-32, Sternberger) to quantify large ventral horn motor neurons (a well established method to follow motor neuron survival in this system).
# GLT1 = GLT1 expression in spinal cords of chronically treated G93A mice; format: in vivo
# [5] = test system: primary cortical mixed neuronal-glial cell cultures; format: cell-based
# Experimental: In Vitro Model of Ischemia—Oxygen glucose deprivation (FIG. 7A) The in vitro model of oxygen glucose deprivation (OGD) is a well known and well accepted model of acute neural injury. In our in vitro model of ischemia, one hour of oxygen glucose deprivation (OGD) is lethal to cultured neurons, with toxicity known to involve excess glutamate. However, when these cultures are preconditioned 24 hours prior to the lethal condition with transient OGD (5 minutes), there is a dramatic and robust resistance of neurons to cell death.
# Method. Primary cortical mixed neuronal-glial cell cultures are prepared from gestation day 14-16 CD1 mice. The preparation of these cultures from mouse fetal cortex is well-described. Experiments are performed at days in vitro 13-15. In the experimental condition, cultures are subjected to oxygen glucose deprivation (OGD), an in-vitro model of ischemia. Cortical cells are either subjected to control treatment (media, modified Earle's balanced salt solution including glucose and bubbled with 5% CO2 95% O2, is changed alongside treatment groups, but no OGD is performed), or 5 minutes (sublethal) of OGD (using modified Earle's balanced salt solution which is devoid of glucose and bubbled with 10% H2, 85% N2, and […]). Anaerobic conditions are achieved using an anaerobic chamber at 37° C. OGD is terminated by exchange of media back to oxygenated growing medium. Twenty-four hours following the above, cortical cells are subjected either to no treatment, or one hour of OGD. Neuronal survival is determined by computer-assisted cell counting after staining with the fluorescent vital dyes propidium iodide (as an indicator of neuronal death) and Hoechst 33342 (as an indicator of total number of neurons) and is presented as percent of cell death. Glial nuclei fluoresce at a lower intensity and are gated out. […] Following 1 hour OGD, cells are returned to growing medium without drugs.
# G93A SOD1 mice = experiment: In vivo neuroprotection in the G93A SOD1 mouse
# Source text: Numerous studies have documented a contributory role for excess glutamate in this mouse model—and role for modulating glutamate receptors or transporters in neuroprotective strategies. Guo H., et al. Hum Mol. Genet. 2003; 12:2519-2532. Modest over expression—by a transgenic approach—can alter disease onset and/or survival.
# [6] = 200 mg/kg ip from approximately 12 weeks of age
# [7] = started at 70 days of age, two weeks of therapy, vs saline
molecule,measurement,setting,value
CCC(C)(C)C(=O)C(=O)N1CCC[C@H]1C(=O)OCCCc1cccnc1 [GPI-1046],EAAT2 expression,EAAT2,large increase
CO/N=C(\C(=O)N[C@@H]1C(=O)N2C(C(=O)O)=C(CSc3nc(=O)c(=O)[nH]n3C)CS[C@H]12)c1csc(N)n1 [ceftriaxone sodium],maximum CSF level in inflamed meninges,[1],1.3 to 44 µg/mL
same,maximum average plasma level,[2],82 to 257 µg/mL
CO/N=C(\C(=O)N[C@@H]1C(=O)N2C(C(=O)O)=C(CSc3nc(=O)c(=O)[nH]n3C)CS[C@H]12)c1csc(N)n1 [ceftriaxone],neuroprotection in GLT-1 null cultures,[3],cannot be seen
same,motor neuron loss / neuroprotection,[4],prevented motor neurons loss in a dose dependent manner
same,increase of GLT1 protein and function,EAAT2; concentration used in the THA neuroprotection study,at least 3 fold
same,EC50,"EAAT2; follow-up dose response analysis, FIG. 2F",3.5 µM
same,endogenous GLT1 expression in spinal cords,GLT1,increase endogenous GLT1 expression significantly
same,percentage of neuronal cell death,"[5]; 1 μM added 48 hours prior to 1 hour OGD, 50% without drug",20%
same,"neuroprotection, acute administration","[5]; acute administration, 1 hour OGD",not protective
same,age by which strength preservation was lost,G93A SOD1 mice; [6],≤ 18 weeks
same,persistence of strength effect,G93A SOD1 mice; [6],4 weeks
same,time after treatment at which strength effect was observed,G93A SOD1 mice; [6],≤ 7 days
same,loss of muscle strength (grip strength),"G93A SOD1 mice; 200 mg/kg ip from approximately 12 weeks of age, FIG. 7C",significantly delayed
same,increase of over all survival,"G93A SOD1 mice; 200 mg/kg ip from approximately 12 weeks of age, FIG. 7D",7 to 10 days
same,"survival, earlier administration",G93A SOD1 mice; same dose started at 42 days of age,survival was also increased
same,hypercellular-associated gliosis and inflammation,G93A SOD1 mice; [7],reduction
same,motor neuron loss in vivo,G93A SOD1 mice; [7],significant prevention
CO/N=C(\C(=O)N[C@@H]1C(=O)N2C(C(=O)O)=C(COC(N)=O)CS[C@H]12)c1ccco1 [cefuroxime],"neuroprotection, pretreatment","[5]; compared with ceftriaxone, 1 hour OGD",Comparable neuroprotection
"CCCC(=O)Nc1ncnc2c1ncn2[C@@H]1O[C@@H]2COP(=O)(O)O[C@H]2[C@H]1OC(=O)CCC [dbcAMP, dibutyryl cyclic AMP]",EAAT2 expression,EAAT2,large increase
CN[C@H](CC(C)C)C(=O)N[C@H]1C(=O)N[C@@H](CC(N)=O)C(=O)N[C@H]2C(=O)N[C@H]3C(=O)N[C@H](C(=O)N[C@H](C(=O)O)c4cc(O)cc(O)c4-c4cc3ccc4O)[C@H](O)c3ccc(c(Cl)c3)Oc3cc2cc(c3O[C@@H]2O[C@H](CO)[C@@H](O)[C@H](O)[C@H]2O[C@H]2C[C@](C)(N)[C@H](O)[C@H](C)O2)Oc2ccc(cc2Cl)[C@H]1O [vancomycin],GLT1 levels,EAAT2,did not alter
penicillin,active in increasing EAAT2 in the first screen,"EAAT2; first screen, 10-100 μM",active
"GDNF: positive control for transporter synthesis (protein, UniProt P39905 78-211, looked up) Glial cell line-derived …: SPDKQMAVLPRRERNRQAAAANPENSRGKGRRGQRGKNRGCVLTAIHLNVTDLGLGYETKEELIFRYCSGSCDAAETTYDKILKNLSRNRRLVSDKVGQACCRPIAFDDDLSFLDDNLVYHILRKHSAKRCGCI",EAAT2 expression,EAAT2,large increase
